According to patent US11773078B2, “Furin inhibitors” (Glaxosmithkline Intellectual Property Development Limited, priority 2018, dated 2023):
Where a name gives a salt, the structure may show the parent alone.

Experiments:
TGFβ in mouse lung = experiment: Bleomycin induced lung fibrosis model: TGFβ assay; assay type: in vivo; settings: relative to levels induced by Bleomycin in vehicle treated animals, *p < 0.05
Procedure: (§1) Preclinical pulmonary fibrosis can be induced by single instillation of Bleomycin to the mouse lung. A 15-day Bleomycin protocol was developed to evaluate compounds of the invention in vivo for their ability to inhibit TGFβ secretion and collagen deposition in the mouse lung. On the day before Bleomycin instillation, compounds were administrated to mice based on the appropriate route and frequency. On the study initiation day, under Ketamine (80 mg/kg) and Xylazine (10 mg/kg) anesthesia, all the animals were cannulated oro-tracheally and 50 μL of normal saline (Sham control) or 0.03 U Bleomycin in 50 μL saline (all groups except sham control group) was delivered into the trachea. Compounds were dosed daily until the end of study on Day 15. On termination day, animals were euthanized using CO2 inhalation. The right lung was collected, washed in normal saline, weighed, flash frozen in liquid nitrogen and stored at −80° C. for hydroxyproline (a specific marker for collagen) and TGFβ assays.
(§2) Flash frozen whole right lung tissues were homogenized in 500 μL of RIPA buffer containing PMSF and protease inhibitor cocktail using zirconium oxide bead based homogenizer (Bullet blender Gold, NextAdvance, Germany). Briefly, tissues were spun in the homogenizer at 4° C. for three cycles of 10 minutes each at 1000 g. A complete uniform tissue mixture was obtained using this procedure. The homogenate volume was made up to 1.5 mL by adding 1 mL of RIPA buffer containing PMSF and protease inhibitor cocktail to 500 μL of homogenate. The homogenate was stored as aliquots of 100-500 μL each at −80° C.
Lung tissue homogenates (500 μL) were spun at 13,000 rpm for 20 minutes at 4° C. and supernatants were collected for TGFβ estimation. The assay was performed according to the manufacturer's manual (R&D systems: Cat #SMB100B). Briefly, the lung homogenates were activated by acid activation followed by neutralization to convert latent TGFβ to active TGFβ and the total TGFβ levels in supernatants were measured. Total protein levels in the lung supernatant were also determined.

[1] = target: T1, Furin (108-574-Tev-Flag-His) enzyme (Homo sapiens, UniProt P09958); experiment: Furin enzyme assay; assay type: biochemical
T1 construct: Furin (108-574-Tev-Flag-His) enzyme was expressed and purified from CHO cells; TEV cleavage site (C); FLAG (C); His (C); made in house; host or cells: CHO cells
T1 sequence (P09958 108-574): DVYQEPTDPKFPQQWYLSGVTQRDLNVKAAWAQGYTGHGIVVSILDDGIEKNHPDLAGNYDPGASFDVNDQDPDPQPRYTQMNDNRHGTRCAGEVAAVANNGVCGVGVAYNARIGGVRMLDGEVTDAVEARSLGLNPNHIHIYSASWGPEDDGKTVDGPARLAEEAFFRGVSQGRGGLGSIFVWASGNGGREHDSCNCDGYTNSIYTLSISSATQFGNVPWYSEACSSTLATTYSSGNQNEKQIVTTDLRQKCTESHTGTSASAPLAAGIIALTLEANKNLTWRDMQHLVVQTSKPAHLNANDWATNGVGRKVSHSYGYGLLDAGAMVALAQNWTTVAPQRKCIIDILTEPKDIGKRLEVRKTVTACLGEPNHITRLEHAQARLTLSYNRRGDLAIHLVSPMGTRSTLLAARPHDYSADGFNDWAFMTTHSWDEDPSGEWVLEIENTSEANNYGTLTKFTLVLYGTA
How it was run: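 Compounds ran as 11-point threefold dilutions (0.00017–10 μM final) against 40 pM furin, purified from CHO cells, for 2 h at room temperature. Buffer: 100 mM HEPES pH7.5 with 1 mM CaCl2 and 0.005% Triton X-100. Envision readout. Four-parameter curve gives pXC50.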

[2] = target: T2, furin (endogenous protease) in U20S cells (Homo sapiens, UniProt P09958); experiment: Furin cell-based assay (image-based, Golgi-targeted GFP with BMP10 furin/PCSK cleavage site); settings: 24-hour incubation, read-out: furin golgi cell pXC50 (converted);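 note: Read-out is mean GFP fluorescence of Golgi puncta per cell by high-content imaging, retained when furin inhibited, over an eleven-point 0.00017–10 µM series, four-parameter fit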
T2 construct: the endogenous protease cleaves GFP; endogenous in cells; host or cells: U2OS cells transduced with a BacMam reporter
T2 sequence (P09958 108-794): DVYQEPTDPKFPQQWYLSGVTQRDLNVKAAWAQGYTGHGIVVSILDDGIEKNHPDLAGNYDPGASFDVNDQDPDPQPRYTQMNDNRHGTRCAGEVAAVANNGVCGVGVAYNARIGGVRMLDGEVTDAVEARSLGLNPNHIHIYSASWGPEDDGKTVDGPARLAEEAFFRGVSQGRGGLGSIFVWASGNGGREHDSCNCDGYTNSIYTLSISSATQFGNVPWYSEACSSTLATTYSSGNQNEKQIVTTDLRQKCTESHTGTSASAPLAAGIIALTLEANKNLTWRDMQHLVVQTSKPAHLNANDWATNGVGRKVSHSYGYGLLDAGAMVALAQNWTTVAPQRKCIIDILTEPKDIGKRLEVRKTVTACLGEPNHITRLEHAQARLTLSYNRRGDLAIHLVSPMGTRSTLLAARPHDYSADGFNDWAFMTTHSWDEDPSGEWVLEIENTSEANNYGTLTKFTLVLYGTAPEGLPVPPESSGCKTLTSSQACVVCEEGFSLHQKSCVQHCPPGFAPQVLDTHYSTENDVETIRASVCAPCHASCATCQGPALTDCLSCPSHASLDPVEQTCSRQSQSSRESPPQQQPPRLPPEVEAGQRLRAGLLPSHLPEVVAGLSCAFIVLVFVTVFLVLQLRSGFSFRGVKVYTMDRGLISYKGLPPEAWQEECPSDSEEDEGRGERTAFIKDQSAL

[3] = tested on: hydroxyproline (a specific marker for collagen) in mouse lung; experiment: Bleomycin induced lung fibrosis model: hydroxyproline assay; assay type: in vivo; settings: relative to levels induced by Bleomycin in vehicle treated animals, *p < 0.05
Procedure: as §1, §2
Acid hydrolysis: 500 μL of the homogenized lung parenchyma was transferred to glass vials, and an equal volume of 12N HCl was added (final concentration of HCl: 6N). The vials were purged with nitrogen gas, sealed and incubated overnight (16 h) under anoxic conditions at 110° C.
Post incubation procedures: 35 μL of the sample from each tube or standard (prepared by serial dilution of hydroxyproline stock solution) was added onto a 96 well plate and the assay was performed as per the kit protocol (Quickzyme Biosciences: Cat #: QZBHYPR05). After the final color development, absorbance was measured by colorimetric analysis at 570 nm (using Thermoscan spectrum (Plate Reader) and results were recorded. Standard curve (linear graph) was generated by using hydroxyproline standards provided in the Quickzyme kit.

[4] = tested on: epithelial sodium channel (ENaC); experiment: TEER assay, chronic or acute treatment, Non-CF Polarized Human Lobar Bronchial Epithelial Cells; assay type: cell-based; set-up: RTE Before Amil / RTE After Amil: unit not given here; settings: for Delta RTE / RTE After Amil / RTE Before Amil: chronic treatment (overnight)
Procedure: Primary cultures of CF delF508 or non-CF HBE cells are seeded onto permeable filter supports and grown for 12-14 days for a significant RTE to be measured for TEER assays.
When the ENaC is active under basal conditions (at least in part due to protease cleavage inside the cell or at the apical membrane), there is a finite RTE that is affected by the Na+ current flowing through ENaC heterotrimers (αβγ or δβγ).

[5] = acute treatment, 3 μM thru 50 μM
[6] = 10 mg/kg, Intra-peritoneal, Twice daily
[7] = 10 mg/kg, Intra-peritoneal, Once daily

## CC(CC1CCN(Cc2cc(Oc3cnc(N4CCN(C)CC4)nc3)nc(-c3cc(Cl)cc(Cl)c3)c2)CC1)C(=O)O (stereo in doubt) [Example 137, (R)-3-(1-((2-(3,5-dichlorophenyl)-6-((2-(4-methylpiperazin-1-yl)pyrimidin-5-yl)oxy)pyridin-4-yl)methyl)piperidin-4-yl)-2-methylpropanoic acid]
TGFβ in mouse lung; 10 mg/kg, Oral, Once daily
  % inhibition of total TGFβ in lung: 81* %
[1]
  furin enzyme pIC50: 9.1
[2]
  EC50: 10 nM
[3]; 10 mg/kg, Oral, Once daily
  % inhibition of hydroxyproline in lung: 54* %

## CN(C)C(=O)COC(=O)Cc1ccc(OC(=O)c2ccc(NC(=N)N)cc2)cc1 [Camostat]
[4]; [5]
  Delta RTE after Amil: +15 ± 2
  Delta RTE after Volume Additions: +82 ± 4
[4]; acute treatment, tested at much higher concentrations than Example 11
  inhibition of amiloride-sensitive RTE delta (remaining ENaC activity): more strongly
[4]; chronic overnight treatment, 50 μM, P<0.05
  effect on the amiloride-sensitive RTE delta: equivalent inhibitory effect
[4]; 3 μM
  Delta RTE: +172 ± 20
  RTE After Amil: 615 ± 26
  RTE Before Amil: 443 ± 6
[4]; 10 μM
  Delta RTE: +119 ± 1
  RTE After Amil: 506 ± 10
  RTE Before Amil: 387 ± 11
[4]; 30 μM
  Delta RTE: +163 ± 8
  RTE After Amil: 635 ± 13
  RTE Before Amil: 472 ± 6
[4]; 50 μM
  Delta RTE: +98 ± 2
  RTE After Amil: 446 ± 3
  RTE Before Amil: 348 ± 4

## CC(=O)NCC1CCN(Cc2cc(Oc3ccc(N4CCN(CC(=O)O)CC4)nc3)nc(-c3cc(Cl)cc(Cl)c3)c2)CC1 [Example 10, 2-(4-(5-((4-((4-(Acetamidomethyl)piperidin-1-yl)methyl)-6-(3,5-dichlorophenyl)pyridin-2-yl)oxy)pyridin-2-yl)piperazin-1-yl)acetic acid, 4 hydrochloride]
TGFβ in mouse lung; [6]
  % inhibition of total TGFβ in lung: 43* %
[1]
  furin enzyme pIC50: 8.7
[2]
  EC50: 126 nM
[3]; [6]
  % inhibition of hydroxyproline in lung: 16%

## CC(=O)NCC1CCN(Cc2cc(Oc3ccc(N4CCN(CCS(C)(=O)=O)CC4)nc3)nc(-c3cc(Cl)cc(Cl)c3)c2)CC1 [Example 12, N-((1-((2-(3,5-Dichlorophenyl)-6-((6-(4-(2-(methylsulfonyl)ethyl)piperazin-1-yl)pyridin-3-yl)oxy)pyridin-4-yl)methyl)piperidin-4-yl)methyl)acetamide, 4 hydrochloride]
TGFβ in mouse lung; 30 mg/kg, Oral, Once daily
  % inhibition of total TGFβ in lung: 41* %
[1]
  furin enzyme pIC50: 8.3
[2]
  EC50: 25.1 nM
[3]; 30 mg/kg, Oral, Once daily
  % inhibition of hydroxyproline in lung: 45* %

## CNC(=O)NCC1CCN(Cc2cc(Oc3ccc(N4CCN(CCC(=O)O)CC4)nc3)nc(-c3cc(Cl)cc(Cl)c3)c2)CC1 [Example 41, 3-(4-(5-((6-(3,5-Dichlorophenyl)-4-((4-((3-methylureido)methyl)piperidin-1-yl)methyl)pyridin-2-yl)oxy)pyridin-2-yl)piperazin-1-yl)propanoic acid]
TGFβ in mouse lung; [7]
  % inhibition of total TGFβ in lung: 67* %
[1]
  furin enzyme pIC50: 9.1
[2]
  EC50: 25.1 nM
[3]; [7]
  % inhibition of hydroxyproline in lung: 39* %

## COC(=O)NCC1CCN(Cc2cc(Oc3cnc(N4CCN(CCC(=O)O)CC4)nc3)nc(-c3cc(Cl)cc(Cl)c3)c2)CC1 [Example 62, 3-(4-(5-((6-(3,5-Dichlorophenyl)-4-1(4-(((methoxycarbonyl)amino)methyl)piperidin-1-yl)methyl)pyridin-2-yl)oxy)pyrimidin-2-yl)piperazin-1-yl)propanoic acid, 4 hydrochloride]
TGFβ in mouse lung; 30 mg/kg, Oral, Once daily
  % inhibition of total TGFβ in lung: 7%
[1]
  furin enzyme pIC50: 9.8
[2]
  EC50: 31.6 nM
[3]; 30 mg/kg, Oral, Once daily
  % inhibition of hydroxyproline in lung: −14%

## CN1CCCN(c2ncc(Oc3cc(CN4CCC(CC(=O)O)CC4)cc(-c4cc(Cl)cc(Cl)c4)n3)cn2)CC1 [Example 126, 2-(1-((2-(3,5-Dichlorophenyl)-6-((2-(4-methyl-1,4-diazepan-1-yl)pyrimidin-5-yl)oxy)pyridin-4-yl)methyl)piperidin-4-yl)acetic acid]
TGFβ in mouse lung; 30 mg/kg, Oral, Once daily
  % inhibition of total TGFβ in lung: 34* %
[1]
  furin enzyme pIC50: 9
[2]
  EC50: 6.31 nM
[3]; 30 mg/kg, Oral, Once daily
  % inhibition of hydroxyproline in lung: 36* %

## CC(=O)NCC1CCN(Cc2cc(Oc3ccc(N4CCN(CCO)CC4)nc3)nc(-c3cc(Cl)cc(Cl)c3)c2)CC1 [Example 180, N-((1-((2-(3,5-Dichlorophenyl)-6-((6-(4-(2-hydroxyethyl)piperazin-1-yl)pyridin-3-yl)oxy)pyridin-4-yl)methyl)piperidin-4-yl)methyl)acetamide]
TGFβ in mouse lung; [7]
  % inhibition of total TGFβ in lung: 60* %
[1]
  furin enzyme pIC50: 9.1
[2]
  EC50: 3.16 nM
[3]; [7]
  % inhibition of hydroxyproline in lung: 56* %

## O=C(O)CC1CCN(Cc2cc(Oc3cnc(N4CCNCC4)nc3)nc(-c3cc(Cl)cc(Cl)c3)c2)CC1 [Example 206, 2-(1-((2-(3,5-Dichlorophenyl)-6-((2-(piperazin-1-yl)pyrimidin-5-yl)oxy)pyridin-4-yl)methyl)piperidin-4-yl)acetic acid]
TGFβ in mouse lung; 10 mg/kg, Oral, Once daily
  % inhibition of total TGFβ in lung: −11%
[1]
  furin enzyme pIC50: 8.6
[2]
  EC50: 25.1 nM
[3]; 10 mg/kg, Oral, Once daily
  % inhibition of hydroxyproline in lung: 6%

## CN1CCN(c2ncc(Oc3cc(CN4CCC(CC(=O)O)CC4)cc(-c4cc(Cl)cc(Cl)c4)n3)cn2)CC1 [Example 207, 2-(1-((2-(3,5-Dichlorophenyl)-6-((2-(4-methylpiperazin-1-yl)pyrimidin-5-yl)oxy)pyridin-4-yl)methyl)piperidin-4-yl)acetic acid]
TGFβ in mouse lung; 10 mg/kg, Oral, Once daily
  % inhibition of total TGFβ in lung: 66* %
[3]; 10 mg/kg, Oral, Once daily
  % inhibition of hydroxyproline in lung: 46* %

## CS(=O)(=O)CCCN1CCN(c2ncc(Oc3cc(CN4CCC(CC(=O)O)CC4)cc(-c4cc(Cl)cc(Cl)c4)n3)cn2)CC1 [Example 242, 2-(1-((2-(3,5-Dichlorophenyl)-6-((2-(4-(3-(methylsulfonyl)propyl)piperazin-1-yl)pyrimidin-5-yl)oxy)pyridin-4-yl)methyl)piperidin-4-yl)acetic acid]
TGFβ in mouse lung; 10 mg/kg, Oral, Once daily
  % inhibition of total TGFβ in lung: 40* %
[1]
  furin enzyme pIC50: 8.6
[2]
  EC50: 25.1 nM
[3]; 10 mg/kg, Oral, Once daily
  % inhibition of hydroxyproline in lung: −1%

## CC(=O)NCC1CCN(Cc2cc(Oc3cnc(N4CCN(CCC(=O)O)CC4)nc3)nc(-c3cc(Cl)cc(Cl)c3)c2)CC1 [Example 263, 3-(4-(5-((4-((4-(acetamidomethyl)piperidin-1-yl)methyl)-6-(3,5-dichlorophenyl)pyridin-2-yl)oxy)pyrimidin-2-yl)piperazin-1-yl)propanoic acid]
TGFβ in mouse lung; [6]
  % inhibition of total TGFβ in lung: 86* %
[1]
  furin enzyme pIC50: 9.8
[2]
  EC50: 10 nM
[3]; [6]
  % inhibition of hydroxyproline in lung: 60* %
